This note sets out measurements from ChEMBL document CHEMBL1201862, “PubChem BioAssay data set” (2004).

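Protocol summary: plate cells (96-well), add compound at 5 concentrations, incubate 48 h, interpolate endpoints linearly. GI50 marks 50% less growth.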 Activity calls are given as the source filed them. Cut-off read from the data, not from the text of the source: active = GI50 up to about 1.1 µM and inactive = higher. A value given as a limit tells only on which side of the number the result lay.

Test systems include U-251; NCI/ADR-RES; HCC 2998; MDA-N; CCRF-CEM; A549; SK-MEL-28; SK-MEL-5; NCI-H23; HL-60; ACHN; M14; HCT-116; HT-29; NCI-H226; NCI-H460; SN12C; SNB-75.
Assay in all cases: NCI tumour cell line growth inhibition, 48 h

Consider `CC1(C)[C@@H]2CC[C@@]1(C)C1(S[S+]1[O-])C21Cc2ccccc2C1` (stereo partly specified), for which the GI50 in the assay with U-251 was 24.9 µM (inactive); in the assay on NCI/ADR-RES it was 25.6 µM (inactive); in the assay on HCC 2998, 18.5 µM (inactive); in the assay with MDA-N, 17.1 µM (inactive); in the assay with CCRF-CEM, 5.25 µM (inactive); in the assay on A549, 36.8 µM (inactive). Moreover, the GI50 was 23.1 µM (inactive) in the assay on SK-MEL-28; > 10 µM (inactive) in the assay on SK-MEL-5; 31.8 µM (inactive) in the assay with NCI-H23; 18.1 µM (inactive) in the assay with HL-60; 20.9 µM (inactive) in the assay on ACHN; 33.4 µM (inactive) in the assay with M14. For the same molecule, the GI50 with HCT-116 was 14.7 µM (inactive); in the assay with HT-29, 17.9 µM (inactive); in the assay with NCI-H226, > 100 µM (inactive); in the assay with NCI-H460 it was 21.5 µM (inactive); with SN12C, 18.1 µM (inactive); with SNB-75, 31 µM (inactive).
In the case of `O=C(c1ccccc1)c1ccc2c(c1)nc1n2C(c2c(Cl)cccc2Cl)SC1` (stereo unspecified), the GI50 in the assay with U-251 was 69.5 µM (inactive); in the assay on NCI/ADR-RES it was 40.3 µM (inactive); with HCC 2998, > 100 µM (inactive); with MDA-N, 41.7 µM (inactive); in the assay on A549, 32.7 µM (inactive); in the assay on SK-MEL-28, > 100 µM (inactive). Also, the GI50 in the assay on SK-MEL-5 was 27.5 µM (inactive); in the assay on NCI-H23, 47.4 µM (inactive); in the assay on HL-60, 39.4 µM (inactive); in the assay with ACHN, 71.6 µM (inactive); with M14 it was 48.2 µM (inactive); in the assay on HCT-116, 29 µM (inactive). The GI50 was 56.1 µM (inactive) in the assay with HT-29; > 100 µM (inactive) in the assay with NCI-H226; 40.2 µM (inactive) with NCI-H460; > 100 µM (inactive) with SN12C; 28.4 µM (inactive) with SNB-75.
As to `Cc1n[nH]c(=O)n1/N=C/c1ccc([N+](=O)[O-])cc1`, the GI50 in the assay on U-251, in the assay with NCI/ADR-RES, with HCC 2998, in the assay on MDA-N, with CCRF-CEM and with A549 was > 100 µM (inactive) each time. In addition, the GI50 with SK-MEL-28, in the assay on SK-MEL-5, in the assay with NCI-H23, with HL-60, with ACHN and in the assay with HCT-116 was > 100 µM (inactive) throughout. Further, the GI50 with HT-29 is > 100 µM (inactive); with NCI-H226, > 100 µM (inactive); in the assay on NCI-H460, > 100 µM (inactive); in the assay on SN12C, > 100 µM (inactive); in the assay on SNB-75 it was 41.1 µM (inactive).
Regarding `Cc1ccc([N+](=O)[O-])cc1S(=O)(=O)Nc1ccc(C2=NNC(c3ccccc3)C2)cc1` (stereo unspecified), the GI50 in the assay with NCI/ADR-RES is 21.1 µM (inactive); in the assay on HCC 2998, 18.7 µM (inactive); with MDA-N, 23.9 µM (inactive); in the assay on A549, 19.1 µM (inactive); with SK-MEL-28 it was 25.2 µM (inactive); with SK-MEL-5 it was 14.7 µM (inactive). Moreover, the GI50 was 15.8 µM (inactive) with NCI-H23; 16.4 µM (inactive) in the assay with HL-60; 16.3 µM (inactive) in the assay with ACHN; 21.4 µM (inactive) in the assay on M14; 13.1 µM (inactive) in the assay on HCT-116; 27.4 µM (inactive) with HT-29. The GI50 in the assay with NCI-H226 is 32.9 µM (inactive); with NCI-H460 it was 15.1 µM (inactive); in the assay on SN12C it was 19.5 µM (inactive); in the assay with SNB-75 it was 24.8 µM (inactive).
As to `O=S(=O)(O)/C(=N\c1cccc(Cc2ccccc2)c1)Nc1cccc(Cc2ccccc2)c1`, the GI50 in the assay with U-251 is 19.6 µM (inactive); in the assay with NCI/ADR-RES, 18.2 µM (inactive); in the assay on HCC 2998 it was 18.8 µM (inactive); in the assay on MDA-N, 20.4 µM (inactive); with CCRF-CEM, 27.2 µM (inactive); in the assay with A549 it was 22.4 µM (inactive). Also, the GI50 in the assay with SK-MEL-28 is 19.6 µM (inactive); in the assay on SK-MEL-5 it was 18.1 µM (inactive); with NCI-H23, 16.4 µM (inactive); in the assay with HL-60, 33.4 µM (inactive); in the assay on ACHN it was 17.4 µM (inactive); in the assay with M14 it was 16.4 µM (inactive). For the same molecule, the GI50 in the assay with HCT-116 is 14.9 µM (inactive); with HT-29, 18 µM (inactive); with NCI-H226, 18 µM (inactive); in the assay with SN12C, 19.5 µM (inactive); in the assay on SNB-75 it was 16.1 µM (inactive).
For the molecule `Cc1c(C)c2c(c(N)c1C#N)C(=O)N(CCN1CCNCC1)C2=O`, the GI50 was 43.7 µM (inactive) with U-251; 33.4 µM (inactive) in the assay on NCI/ADR-RES; 31.6 µM (inactive) in the assay on HCC 2998; 40.9 µM (inactive) in the assay with MDA-N; 33.4 µM (inactive) with CCRF-CEM; 29.6 µM (inactive) in the assay on A549. Further, the GI50 in the assay on SK-MEL-28 was 38.3 µM (inactive); in the assay with SK-MEL-5 it was > 10 µM (inactive); in the assay on HL-60, 28.4 µM (inactive); in the assay with ACHN, 25.6 µM (inactive); in the assay with M14, 33.8 µM (inactive); with HCT-116 it was 16.1 µM (inactive). In addition, the GI50 in the assay with NCI-H226 was 29.1 µM (inactive); in the assay with NCI-H460, 29.9 µM (inactive); in the assay with SN12C it was 32.5 µM (inactive); in the assay with SNB-75, 26.2 µM (inactive).
In the case of `C/N=C(\N)N/N=C(\C)c1ccc2oc3ccc(/C(C)=N/N/C(N)=N/C)cc3c2c1`, the GI50 with U-251 was 1.61 µM (inactive); in the assay on NCI/ADR-RES, > 39.1 µM (inactive); with HCC 2998, 2 µM (inactive); with MDA-N, 3.62 µM (inactive); in the assay with CCRF-CEM, 2.39 µM (inactive); in the assay on A549, 2.86 µM (inactive). In addition, the GI50 with SK-MEL-28 is 3.93 µM (inactive); in the assay with SK-MEL-5 it was 2.62 µM (inactive); in the assay on NCI-H23, 2.39 µM (inactive); in the assay on HL-60 it was 2.89 µM (inactive); with ACHN, 5.45 µM (inactive); with M14 it was 3.24 µM (inactive). Also, the GI50 was 2.79 µM (inactive) in the assay on HCT-116; 1.73 µM (inactive) with HT-29; 2.08 µM (inactive) with NCI-H226; 1.98 µM (inactive) in the assay on NCI-H460; 2.46 µM (inactive) in the assay on SN12C.
With `C[n+]1ccccc1/C=C/c1ccc2c(c1)OCO2`, the GI50 was > 10 µM (inactive) in the assay on U-251; > 10 µM (inactive) with NCI/ADR-RES; > 10 µM (inactive) with HCC 2998; > 10 µM (inactive) with MDA-N; > 10 µM (inactive) in the assay on CCRF-CEM; 4.59 µM (inactive) in the assay on A549. Further, the GI50 in the assay on SK-MEL-28, in the assay on SK-MEL-5, in the assay on NCI-H23, in the assay with HL-60, in the assay with ACHN and in the assay with M14 was > 10 µM (inactive) throughout. Also, the GI50 in the assay on HCT-116, with HT-29, with NCI-H226, in the assay with NCI-H460 and in the assay with SN12C was > 10 µM (inactive) in each case.
With `O=c1[nH]cc(F)c(=O)[nH]1` [FLUOROURACIL], the GI50 is 44.3 µM (inactive) in the assay with U-251; 41.3 µM (inactive) in the assay on NCI/ADR-RES; 1.6 µM (inactive) with HCC 2998; 8.07 µM (inactive) in the assay on MDA-N; 35.2 µM (inactive) in the assay with CCRF-CEM; 2.11 µM (inactive) with A549. For the same molecule, the GI50 was 50.2 µM (inactive) in the assay on SK-MEL-28; 11.6 µM (inactive) with SK-MEL-5; 12.2 µM (inactive) in the assay on NCI-H23; 20.9 µM (inactive) in the assay on HL-60; 9.62 µM (inactive) in the assay on ACHN; 46.5 µM (inactive) in the assay with M14. For the same molecule, the GI50 in the assay on NCI-H226 was 250 µM (inactive); with NCI-H460 it was 1.05 µM (active); in the assay on SN12C it was 24.9 µM (inactive); with SNB-75 it was 181 µM (inactive).
